# From patent publication US6727268B2, “2-thioxothiazole derivative, method for preparing the same, and pharmaceutical composition containing the same” (CJ Corp., priority 2002, dated 2004)
# Tests used:
# COX-1 = target: T1, COX-1 (Homo sapiens, UniProt P23219); test: Assay for the COX-1 inhibitory activity using U-937 (PGE2 inhibition); assay type: cell-based; conditions: 1 μM test compound; U-937 human lymphoma cells; arachidonic acid substrate; PGE2 vs DMSO control; read-out: Cyclooxygenase (COX) Inhibition (%) COX-1 (1 μM)
# T1 construct: host or cells: U-937 human lymphoma cells
# T1 sequence (P23219 24-599): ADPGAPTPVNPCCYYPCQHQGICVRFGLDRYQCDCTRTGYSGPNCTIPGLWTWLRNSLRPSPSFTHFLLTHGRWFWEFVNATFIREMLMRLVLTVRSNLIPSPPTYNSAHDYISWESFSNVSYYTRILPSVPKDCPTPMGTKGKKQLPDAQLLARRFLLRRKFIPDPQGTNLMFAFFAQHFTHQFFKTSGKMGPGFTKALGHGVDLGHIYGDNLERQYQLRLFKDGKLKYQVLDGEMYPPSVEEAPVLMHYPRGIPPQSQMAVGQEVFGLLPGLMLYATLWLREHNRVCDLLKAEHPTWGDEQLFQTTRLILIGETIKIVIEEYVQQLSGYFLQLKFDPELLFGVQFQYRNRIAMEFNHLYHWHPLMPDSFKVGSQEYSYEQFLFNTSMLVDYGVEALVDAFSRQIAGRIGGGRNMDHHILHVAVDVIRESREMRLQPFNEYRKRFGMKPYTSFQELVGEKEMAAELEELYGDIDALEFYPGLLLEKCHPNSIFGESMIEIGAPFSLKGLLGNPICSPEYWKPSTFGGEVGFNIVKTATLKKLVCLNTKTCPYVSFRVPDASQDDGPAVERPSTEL
# Protocol: The collected cells were diluted with HBSS (×1, Hank's balanced salt solution) to a concentration of 1×10^6 cells/ml. 1 ml of the dilute cell solution was placed into each well of 12-well plates. 5 μl of 1 μM solution of a test compound in DMSO and 5 μl of DMSO as a control were added to the wells. The wells were incubated in CO2 incubator at 37° C. for 15 minutes. Separately, 10 mM stock solution of arachidonic acid in ethanol was diluted ten times in ethanol to prepare 1 mM solution of arachidonic acid. Arachidonic acid acts as a substrate. 10 μl of the 1 mM solution of arachidonic acid was added to each well and incubated at CO2 incubator at 37° C. for 30 minutes. The cell solution of each well was placed in a centrifuge test tube and centrifuged at 10,000 rpm at 4° C. for 5 minutes. The concentration of PGE2 in the collected cells and the supernatant was quantified by means of a monoclonal kit (Cayman Chemicals). The percentages of PGE2 inhibition in a group of the test compound-treated cells in relation to a group of the DMSO-treated cells were calculated. Based on the calculated values, the COX-1 inhibitory activities were evaluated.
# (§1) The percentages of the COX inhibition were calculated according to the following equation: [formula]
# COX-2 = target: T2, COX-2 (Mus musculus, UniProt Q05769); test: Assay for the COX-2 inhibitory activity using RAW 264.7 cell line (PGE2, EIA); assay type: cell-based; conditions: RAW264.7, 10 nM test compound, RAW 264.7 cells, aspirin pre-treated, interferon + LPS 18 hours, read-out: Cyclooxygenase (COX) Inhibition (%) COX-2 (10 nM)
# T2 construct: host or cells: RAW 264.7 cells, pre-treated with aspirin and induced with interferon and LPS
# T2 sequence (Q05769 18-604): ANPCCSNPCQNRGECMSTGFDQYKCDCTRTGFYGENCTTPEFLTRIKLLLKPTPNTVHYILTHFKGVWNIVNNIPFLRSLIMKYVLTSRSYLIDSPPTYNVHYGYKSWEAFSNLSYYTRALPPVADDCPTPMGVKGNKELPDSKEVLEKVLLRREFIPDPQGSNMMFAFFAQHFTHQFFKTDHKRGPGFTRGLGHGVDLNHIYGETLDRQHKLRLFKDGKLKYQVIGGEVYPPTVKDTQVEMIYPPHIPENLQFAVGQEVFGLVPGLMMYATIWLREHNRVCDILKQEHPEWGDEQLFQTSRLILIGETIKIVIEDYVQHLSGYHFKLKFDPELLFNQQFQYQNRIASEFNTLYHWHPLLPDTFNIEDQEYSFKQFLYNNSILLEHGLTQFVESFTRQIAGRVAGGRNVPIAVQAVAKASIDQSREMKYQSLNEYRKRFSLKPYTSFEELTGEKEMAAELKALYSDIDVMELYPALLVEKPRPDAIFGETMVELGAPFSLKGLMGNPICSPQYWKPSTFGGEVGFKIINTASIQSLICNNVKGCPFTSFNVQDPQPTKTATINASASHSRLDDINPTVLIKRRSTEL
# Protocol: Each well was treated with 250 μM of aspirin and incubated at 37° C. for 2 hours. After the culture media were replaced with new culture media, the new culture media were treated with a test compound (10 nM) and incubated for 30 minutes. Then, each well was treated with interferon ? (100 units/ml) and lipopolysaccharide (LPS, 100 ng/ml) and incubated for 18 hours. The culture media were transferred to other test tubes. The concentration of PGE2 was quantified by means of the EIA kit (Cayman Chemicals).
# as §1
inhibition at 1 µM (COX-1) [%],inhibition at 0.01 µM (COX-2) [%],melting point [°C],Compound
28.5,60.9,235,"NS(=O)(=O)c1ccc(-n2c(-c3ccccc3)csc2=S)cc1 [Example 1, 4-(4-phenyl-2-thioxothiazole-3-yl)benzenesulfonamide]"
35.2,66.5,262,"Cc1sc(=S)n(-c2ccc(S(N)(=O)=O)cc2)c1-c1ccccc1 [Example 2, 4-(5-methyl-4-phenyl-2-thioxothiazole-3-yl)benzenesulfonamide]"
30.7,65.8,288,"CS(=O)(=O)c1ccc(-c2csc(=S)n2-c2ccc(S(N)(=O)=O)cc2)cc1 [Example 3, 4-[4-(4-methanesulfonylphenyl)-2-thioxothiazole-3-yl]benzenesulfo namide]"
31.1,72.7,271,"NS(=O)(=O)c1ccc(-n2c(-c3ccc(F)cc3)csc2=S)cc1 [Example 4, 4-[4-(4-fluorophenyl)-2-thioxothiazole-3-yl]benzenesulfonamide]"
15.8,75,284,"NS(=O)(=O)c1ccc(-n2c(-c3cccc([N+](=O)[O-])c3)csc2=S)cc1 [Example 5, 4-[4-(3-nitrophenyl)-2-thioxothiazole-3-yl]benzenesulfonamide]"
38.5,73.5,242,"NS(=O)(=O)c1ccc(-n2c(-c3ccc(Cl)cc3)csc2=S)cc1 [Example 6, 4-[4-(4-chlorophenyl)-2-thioxothiazole-3-yl]benzenesulfonamide]"

Compound,inhibition at 1 µM (COX-1) [%],inhibition at 0.01 µM (COX-2) [%],melting point [°C]
"Cc1onc(-c2ccccc2)c1-c1ccc(S(N)(=O)=O)cc1 [Reference (Valdecoxib), Valdecoxib, reference compound]",29.5,–,–
